According to patent US20240391889A1, “ANTIMICROBIAL COMPOUNDS AND THE METHODS OF USE” (priority 2021, published 2024):
Where two headings read alike, the source gives them in different places. Numbered stars: 1 amine (or outer) side, 2 acyl side, 3 side chain; on linkers, the order of the positions; unused ones are H or OH. Square brackets hold non-standard residues; d marks the D form. Peptide text beside a SMILES is read from it. N(tridecyl)Gly = CCCCCCCCCCCCCNCC(=O)O; X1 = CC(c1ccccc1)N(CC(=O)[*:2])[*:1]; NFurfurylGly = O=C(O)CNCc1ccco1; Gly(N(CH2)3NH2) = NCCCNCC(=O)O; Nphe = O=C(O)CNCc1ccccc1; NPrGly = CCCNCC(=O)O; Nlys = NCCCCNCC(=O)O

Test system: C. albicans
Assay type: cell-based, Candida albicans
Text: One of the most serious crises facing both new and existing antimicrobial compounds is the rapid development of resistance by pathogens to that compound, rendering it useless. This has been an issue observed with all major commercially available antimicrobial drugs and is an increasingly prevalent issue with antifungal drugs (Clatworthy et al., Nat. Chem. Biol. 3, 541-548 (2007); Wiederhold et al., Infect. Drug Resist. 10, 249-259 (2017)). The ability of C. albicans to gain resistance against RMG9-11 was evaluated using two techniques; serial and single passage. Ching et al. described a method for single passage assessment of gain of resistance, which was used here with RMG9-11 (Ching et al., Sci. Rep. 10, 8754 (2020)). Briefly, a single colony of C. albicans was incubated overnight in RPMI-MOPS. Fungal cultures were then incubated for either 24 or 48 hours with concentrations of RMG9-11 ranging from 0 to 80% MIC. […]
Gain of resistance to RMG9-11 by C. albicans was determined using a serial passage assay following previously published methods.43 Single colonies of C. albicans from a frozen stock streak plate were added to a saline solution (0.85%) to achieve an OD530=0.15-0.25. […]

## CCCCCCCCCCCCCNCC(=O)N(CCC)CC(=O)N(CC(=O)N(CCCCN)CC(=O)N(CC(=O)N(CC(=O)N(CCCN)CC(N)=O)Cc1ccccc1)Cc1ccco1)C(C)c1ccccc1 (centres unmarked) [RMG9-11] (H-[N(tridecyl)Gly][NPrGly][X1][Nlys][NFurfurylGly][Nphe][Gly(N(CH2)3NH2)]-NH2)
Treated: serial passage with 1 to 25% MIC RMG9-11
  Serial Passage MIC: 6.25 µg/mL
Untreated C. albicans
  Serial Passage MIC: 6.25 µg/mL
